Reference: US10336732B2, “1-heterocyclyl isochromanyl compounds and analogs for treating CNS disorders” (Sunovion Pharmaceuticals Inc., priority 2015, dated 2019)

Tested on: mice
Test: Neuropharmacological assay (SmartCube), behavioral signature of compound-treated mice
Assay type: in vivo
Conditions: i.p. 15 min before behavioral test, most efficacious dose(s) of 3 doses
Outline: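 Read-out is an automated video-based behavioral signature, scored as per-class probabilities (e.g., anxiolytic, antidepressant) against reference compounds. Dosing was i.p. at three doses, 15 min pre-test, in NMP, polyethylene glycol and propylene glycol. Values shown are from the most efficacious dose(s).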

Structure (SMILES) | AD: ADHD (probability that behavioral signature matches class) | AG: analgesic (probability that behavioral signature matches class) | AX: anxiolytic (probability that behavioral signature matches class) | CE: cognitive enhancer (probability that behavioral signature matches class) | DP: anti-depressant (probability that behavioral signature matches class) | HA: hallucinogen (probability that behavioral signature matches class) | MS: mood stabilizer (probability that behavioral signature matches class) | PS: anti-psychotic (probability that behavioral signature matches class) | SD: sedative hypnotic (probability that behavioral signature matches class) | UN: uncharacterized CNS activity (probability that behavioral signature matches class) | XG: anxiogenic (probability that behavioral signature matches class)
c1ccc2c(c1)CCO[C@@H]2[C@H]1CCN1 [Compound I-81, (R)-2-((S)-isochroman-1-yl)azetidine] | + (LOQ ≤ + <5%) | ++ (5% ≤ ++ <25%) | +++ (25% ≤ +++ <50%) | ++ (5% ≤ ++ <25%) | ++ (5% ≤ ++ <25%) | + (LOQ ≤ + <5%) | + (LOQ ≤ + <5%) | ++ (5% ≤ ++ <25%) | +++ (25% ≤ +++ <50%) | + (LOQ ≤ + <5%) | + (LOQ ≤ + <5%)
N#Cc1cccc2c1[C@@H]([C@@H]1CCCN1)OCC2 [Compound I-37, (S)-1-((S)-pyrrolidin-2-yl)isochroman-8-carbonitrile] | + (LOQ ≤ + <5%) | + (LOQ ≤ + <5%) | ++ (5% ≤ ++ <25%) | + (LOQ ≤ + <5%) | ++ (5% ≤ ++ <25%) | + (LOQ ≤ + <5%) | + (LOQ ≤ + <5%) | ++ (5% ≤ ++ <25%) | + (LOQ ≤ + <5%) | +++ (25% ≤ +++ <50%) | + (LOQ ≤ + <5%)
Fc1ccc2c(c1)CCO[C@@H]2[C@@H]1CCCCN1 [Compound I-73, (S)-2-((S)-6-fluoroisochroman-1-yl)piperidine] | + (LOQ ≤ + <5%) | ++ (5% ≤ ++ <25%) | ++ (5% ≤ ++ <25%) | ++ (5% ≤ ++ <25%) | ++ (5% ≤ ++ <25%) | + (LOQ ≤ + <5%) | ++ (5% ≤ ++ <25%) | + (LOQ ≤ + <5%) | + (LOQ ≤ + <5%) | +++ (25% ≤ +++ <50%) | + (LOQ ≤ + <5%)
C[C@@]1([C@H]2CCCN2)OCc2cc(F)ccc21 [Compound I-124, (R)-2-((R)-5-fluoro-1-methyl-1,3-dihydroisobenzofuran-1-yl)pyrrolidine] | + (LOQ ≤ + <5%) | + (LOQ ≤ + <5%) | + (LOQ ≤ + <5%) | + (LOQ ≤ + <5%) | + (LOQ ≤ + <5%) | + (LOQ ≤ + <5%) | + (LOQ ≤ + <5%) | + (LOQ ≤ + <5%) | + (LOQ ≤ + <5%) | + (LOQ ≤ + <5%) | + (LOQ ≤ + <5%)
N#Cc1ccc2c(c1)[C@H]([C@H]1CCCN1)OCC2 [Compound I-41, (R)-1-((R)-pyrrolidin-2-yl)isochroman-7-carbonitrile] | + (LOQ ≤ + <5%) | ++ (5% ≤ ++ <25%) | ++ (5% ≤ ++ <25%) | ++ (5% ≤ ++ <25%) | +++ (25% ≤ +++ <50%) | + (LOQ ≤ + <5%) | ++ (5% ≤ ++ <25%) | ++ (5% ≤ ++ <25%) | ++ (5% ≤ ++ <25%) | + (LOQ ≤ + <5%) | + (LOQ ≤ + <5%)
N#Cc1ccc2c(c1)[C@H]([C@@H]1CCCN1)OCC2 [Compound I-40, (R)-1-((S)-pyrrolidin-2-yl)isochroman-7-carbonitrile] | + (LOQ ≤ + <5%) | + (LOQ ≤ + <5%) | ++ (5% ≤ ++ <25%) | ++ (5% ≤ ++ <25%) | ++ (5% ≤ ++ <25%) | + (LOQ ≤ + <5%) | + (LOQ ≤ + <5%) | +++ (25% ≤ +++ <50%) | + (LOQ ≤ + <5%) | + (LOQ ≤ + <5%) | + (LOQ ≤ + <5%)
Fc1ccc2c(c1)CO[C@H]2[C@@H]1CCCN1 [Compound I-119, (S)-2-((R)-5-fluoro-1,3-dihydroisobenzofuran-1-yl)pyrrolidine] | + (LOQ ≤ + <5%) | +++ (25% ≤ +++ <50%) | ++ (5% ≤ ++ <25%) | ++ (5% ≤ ++ <25%) | ++ (5% ≤ ++ <25%) | + (LOQ ≤ + <5%) | + (LOQ ≤ + <5%) | +++ (25% ≤ +++ <50%) | + (LOQ ≤ + <5%) | + (LOQ ≤ + <5%) | + (LOQ ≤ + <5%)
c1cc2c(c3c1CCO[C@H]3[C@@H]1CCN1)OCO2 [Compound I-144, (S)-2-((R)-7,9-dihydro-6H-[1,3]dioxolo[4,5-h]isochromen-9-yl)azetidine] | ++ (5% ≤ ++ <25%) | ++ (5% ≤ ++ <25%) | ++ (5% ≤ ++ <25%) | ++ (5% ≤ ++ <25%) | +++ (25% ≤ +++ <50%) | + (LOQ ≤ + <5%) | ++ (5% ≤ ++ <25%) | +++ (25% ≤ +++ <50%) | + (LOQ ≤ + <5%) | +++ (25% ≤ +++ <50%) | + (LOQ ≤ + <5%)
c1ccc2c(c1)CCO[C@H]2[C@@H]1CCCCN1 [Compound I-72, (S)-2-((R)-isochroman-1-yl)piperidine] | + (LOQ ≤ + <5%) | ++ (5% ≤ ++ <25%) | ++ (5% ≤ ++ <25%) | + (LOQ ≤ + <5%) | + (LOQ ≤ + <5%) | + (LOQ ≤ + <5%) | + (LOQ ≤ + <5%) | + (LOQ ≤ + <5%) | + (LOQ ≤ + <5%) | +++ (25% ≤ +++ <50%) | ++ (5% ≤ ++ <25%)
c1ccc2c(c1)CCO[C@@H]2[C@@H]1CCCN1 [Compound I-17, (S)-2-((S)-isochroman-1-yl)pyrrolidine] | + (LOQ ≤ + <5%) | + (LOQ ≤ + <5%) | ++ (5% ≤ ++ <25%) | ++ (5% ≤ ++ <25%) | +++ (25% ≤ +++ <50%) | + (LOQ ≤ + <5%) | + (LOQ ≤ + <5%) | ++ (5% ≤ ++ <25%) | + (LOQ ≤ + <5%) | + (LOQ ≤ + <5%) | + (LOQ ≤ + <5%)
Fc1cccc2c1CCO[C@H]2[C@H]1CCCN1 [Compound I-15, (R)-2-((R)-5-fluoroisochroman-1-yl)pyrrolidine] | + (LOQ ≤ + <5%) | ++ (5% ≤ ++ <25%) | +++ (25% ≤ +++ <50%) | ++ (5% ≤ ++ <25%) | ++ (5% ≤ ++ <25%) | + (LOQ ≤ + <5%) | + (LOQ ≤ + <5%) | ++ (5% ≤ ++ <25%) | + (LOQ ≤ + <5%) | + (LOQ ≤ + <5%) | + (LOQ ≤ + <5%)
